Eleven molecules from patent US7655629B2, “Peptides and their use for the treatment of HIV infections” (priority 2002, dated 2010) can be followed below.

Data set [1] deals with HIV-1 NL4-3 DTV. As to conditions: read-out: IC50 DTV, P4-CCR5 cells, peptide 2 h before infection, readout three days after infection. An outline of the steps: (§1)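 P4-CCR5 cells (CD4, CCR5, CXCR4, HIV-1 promoter-driven β-galactosidase) pretreated 2 h with peptide, then infected with virus containing 1 ng p24 antigen and incubated overnight. Cells washed and cultured without peptide; three days post-infection infectivity read by chemiluminescent β-galactosidase assay, in quintuplicate.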

Data set [2] concerns X4-tropic HIV-1 NL4-3. As to conditions: for IC50: read-out: IC50 NL4-3, P4-CCR5 cells, HIV-1 NL4-3, peptide 2 h before infection, readout three days after infection. Put shortly:
as §1

The conditions of data set [3]: human, plasma.
The conditions of data set [4]: rat, plasma.
Description: (§2) Plasma was spiked resulting in concentrations of 40 μg/ml and stored at 37° C. At time points 0, 15, 30, 45, 60, 120, 180, 240 and 300 min samples of 20 μl were taken. The plasma was immediately mixed for precipitation with the two-fold volume of acetonitrile containing 0.15% (w/v) n-nonyl-β-D-glucopyranoside. Following centrifugation the supernatants were mixed with the two-fold volume of 0.1% (v/v) trifluroacetic acid. Twenty μl of these solutions were analyzed by LC-MS. Chromatography was performed using a gradient with the following eluents: eluent A: water containing 0.06% trifluroacetic acid (v/v), eluent B: acetonitrile/water 80:20 (v/v; with 0.05% trifluoroacetic acid; v/v). A C18 precolumn was used in combination with a C18 separation column (300 Å, 5 μm, 150×1 mm inner diameter) at a flow rate of 30 μl/min. HPLC eluates were ionized by the electrospray technique of a LCQ classic mass spectrometer. Areas of the detected peaks of the peptides of the present invention were measured and used for quantification by external calibration. The calibration curve was linear over a range from 0.5 μg/ml to 250 μg/ml plasma. Half life—defined as the period for a concentration decrease to 50% of the initial concentration—was calculated from the slope of an extrapolated curve plotting the relative peptide concentration at a given time point (logarithm scale) against the incubation time. These experiments allowed the quantitative analysis of peptide concentration in plasma.
For data set [5] the following is noted: dog, plasma.
Description: as §2
For data set [6] the following is noted: cynomolgus monkey, plasma.

Like-named read-outs stand apart in the source and are kept apart here. Positions of bridges follow the written chain, without caps; N, C: chain ends. Non-standard residues stand in square brackets, D forms with d. Residues, ends and D or L forms follow the SMILES beside them. Chains are numbered I, II in the order given. Dip = N[C@H](C(=O)O)C(c1ccccc1)c1ccccc1; Bta = N[C@@H](Cc1csc2ccccc12)C(=O)O; Tic = O=C(O)[C@@H]1Cc2ccccc2CN1; dTic = O=C(O)[C@H]1Cc2ccccc2CN1; 3Thi = N[C@@H](Cc1ccsc1)C(=O)O

Regarding `CC[C@H](C)[C@H](NC(=O)[C@H](C)NC(=O)[C@H](CCC(=O)O)NC(=O)[C@@H](N)CC(C)C)C(=O)N1CCC[C@H]1C(=O)N[C@H]1CSSC[C@@H](C(=O)N[C@H](C(=O)N[C@@H](C)C(=O)N2Cc3ccccc3C[C@@H]2C(=O)N[C@@H](CC(N)=O)C(=O)N[C@@H](CCCCN)C(=O)N2CCC[C@H]2C(=O)N2Cc3ccccc3C[C@@H]2C(=O)N[C@@H](Cc2ccccc2)C(=O)N[C@H](C(=O)N[C@@H](Cc2ccccc2)C(=O)O)C(C)C)C(C)C)NC(=O)[C@@H]2CCCN2C(=O)[C@@H]2CCCN2C(=O)[C@H]([C@@H](C)CC)NC(=O)[C@H](CO)NC1=O` [VIR-166, LEAIPCSIPPCVA(D-Tic)NKP(D-Tic)FVF] (H-LEAIPCSIPPCVA[dTic]NKP[dTic]FVF-OH; disulfide 6-11), the figures for the IC50 in data set [1] and in data set [2] were 506 nM and 356 nM, respectively. The half-life (commonly the time in which the quantity being followed falls by half) is 7.6 h in data set [3], 0.4 h in data set [4], 11 h in data set [5] and 12.1 h in data set [6].

For the molecule `CC[C@H](C)[C@H](NC(=O)[C@H](C)NC(=O)[C@H](CCC(=O)O)NC(=O)[C@@H](N)CC(C)C)C(=O)N1CCC[C@H]1C(=O)N[C@@H](CCSC)C(=O)N[C@@H](CO)C(=O)N[C@H](C(=O)N1CCC[C@H]1C(=O)N1CCC[C@@H]1C(=O)N[C@@H](CCC(=O)O)C(=O)N[C@H](C(=O)N[C@@H](C)C(=O)N[C@@H](Cc1ccccc1)C(=O)N[C@@H](CC(N)=O)C(=O)N[C@@H](CCCCN)C(=O)N1CCC[C@H]1C(=O)N[C@@H](Cc1ccccc1)C(=O)N[C@H](C(=O)N[C@@H](Cc1ccccc1)C(=O)O)C(C)C)C(c1ccccc1)c1ccccc1)[C@@H](C)CC` [VIR-261, LEAIPMSIPpE(3,3-diphenylalanine)AFNKPFVF] (H-LEAIPMSIP[dP]E[Dip]AFNKPFVF-OH), the IC50 – broadly, the concentration at which inhibition is half-maximal – in data set [1] was determined as 1030 nM; in data set [2], 538 nM. Moreover, the half-life in data set [3] was 7 h; in data set [4], 0.2 h; in data set [5], 15.1 h; in data set [6], 6.5 h.

Consider `CC[C@H](C)[C@H](NC(=O)[C@H](C)NC(=O)[C@H](CCC(=O)O)NC(=O)[C@@H](N)CC(C)C)C(=O)N1CCC[C@H]1C(=O)N[C@@H](CCSC)C(=O)N[C@@H](CO)C(=O)N[C@H](C(=O)N1CCC[C@H]1C(=O)N1CCC[C@@H]1C(=O)N[C@@H](CCC(=O)O)C(=O)N[C@H](C(=O)N[C@@H](Cc1csc2ccccc12)C(=O)N[C@@H](Cc1ccccc1)C(=O)N[C@@H](CC(N)=O)C(=O)N[C@@H](CCCCN)C(=O)N1CCC[C@H]1C(=O)N[C@@H](Cc1ccccc1)C(=O)N[C@H](C(=O)N[C@@H](Cc1ccccc1)C(=O)O)C(C)C)C(C)C)[C@@H](C)CC` [VIR-264, LEAIPMSIPpEV(3-benzothienylalanine)FNKPFVF] (H-LEAIPMSIP[dP]EV[Bta]FNKPFVF-OH), for which the IC50 in data set [1] was determined as 700 nM; in data set [2], 590 nM.

As for `CC[C@H](C)[C@H](NC(=O)[C@H](C)NC(=O)[C@H](CCC(=O)O)NC(=O)[C@@H](N)CC(C)C)C(=O)N1CCC[C@H]1C(=O)N[C@@H](CCSC)C(=O)N[C@@H](CO)C(=O)N[C@H](C(=O)N1CCC[C@H]1C(=O)N1CCC[C@@H]1C(=O)N[C@@H](CCC(=O)O)C(=O)N[C@H](C(=O)N[C@@H](Cc1ccsc1)C(=O)N[C@@H](Cc1ccccc1)C(=O)N[C@@H](CC(N)=O)C(=O)N[C@@H](CCCCN)C(=O)N1CCC[C@H]1C(=O)N[C@@H](Cc1ccccc1)C(=O)N[C@H](C(=O)N[C@@H](Cc1ccccc1)C(=O)O)C(C)C)C(C)C)[C@@H](C)CC` [VIR-265, LEAIPMSIPpEV(3-thienylalanine)FNKPFVF] (H-LEAIPMSIP[dP]EV[3Thi]FNKPFVF-OH), the IC50 in data set [1] came out at 2210 nM; in data set [2] it was 1290 nM.

Take `CC[C@H](C)[C@H](NC(=O)[C@H](C)NC(=O)[C@H](CCC(=O)O)NC(=O)[C@@H](N)CC(C)C)C(=O)N1CCC[C@H]1C(=O)N[C@@H](CCSC)C(=O)N[C@@H](CO)C(=O)N[C@H](C(=O)N1CCC[C@H]1C(=O)N1CCC[C@@H]1C(=O)N[C@@H](CCC(=O)O)C(=O)N[C@H](C(=O)N[C@@H](Cc1c[nH]c2ccccc12)C(=O)N[C@@H](Cc1ccccc1)C(=O)N[C@@H](CC(N)=O)C(=O)N[C@@H](CCCCN)C(=O)N1CCC[C@H]1C(=O)N[C@@H](Cc1ccccc1)C(=O)N[C@H](C(=O)N[C@@H](Cc1ccccc1)C(=O)O)C(C)C)C(C)C)[C@@H](C)CC` [VIR-266, LEAIPMSIPpEVWFNKPFVF] (H-LEAIPMSIP[dP]EVWFNKPFVF-OH): the IC50 amounted to 830 nM in data set [1] and 590 nM in data set [2].

Turning to `CC[C@H](C)[C@H](NC(=O)[C@H](C)NC(=O)[C@H](CCC(=O)O)NC(=O)[C@@H](N)CC(C)C)C(=O)N1CCC[C@H]1C(=O)N[C@@H](CCSC)C(=O)N[C@@H](CO)C(=O)N[C@H](C(=O)N1CCC[C@H]1C(=O)N1CCC[C@@H]1C(=O)N[C@@H](CCC(=O)O)C(=O)N[C@H](C(=O)N[C@@H](C)C(=O)N[C@@H](Cc1ccccc1)C(=O)N[C@@H](CC(N)=O)C(=O)N[C@@H](CCCCN)C(=O)N1Cc2ccccc2C[C@H]1C(=O)N[C@@H](Cc1ccccc1)C(=O)N[C@H](C(=O)N[C@@H](Cc1ccccc1)C(=O)O)C(C)C)C(C)C)[C@@H](C)CC` [VIR-268, LEAIPMSIPpEVAFNK(L-Tic)FVF] (H-LEAIPMSIP[dP]EVAFNK[Tic]FVF-OH), the IC50 in data set [1] came out at 1480 nM; in data set [2], 1730 nM.

For the molecule `CC[C@H](C)[C@H](NC(=O)[C@H](C)NC(=O)[C@H](CCC(=O)O)NC(=O)[C@@H](N)CC(C)C)C(=O)N1CCC[C@H]1C(=O)N[C@@H](CSSC[C@H](NC(=O)[C@@H]1CCCN1C(=O)[C@@H](NC(=O)[C@H](C)NC(=O)[C@H](CCC(=O)O)NC(=O)[C@@H](N)CC(C)C)[C@@H](C)CC)C(=O)N[C@@H](CO)C(=O)N[C@H](C(=O)N1CCC[C@H]1C(=O)N1CCC[C@H]1C(=O)N[C@@H](CCC(=O)O)C(=O)N[C@@H](Cc1ccccc1)C(=O)N[C@@H](CC(C)C)C(=O)N[C@@H](Cc1ccccc1)C(=O)NCC(=O)N[C@@H](CCCCN)C(=O)N1CCC[C@H]1C(=O)N[C@@H](Cc1ccccc1)C(=O)N[C@H](C(=O)N[C@@H](Cc1ccccc1)C(=O)O)C(C)C)[C@@H](C)CC)C(=O)N[C@@H](CO)C(=O)N[C@H](C(=O)N1CCC[C@H]1C(=O)N1CCC[C@H]1C(=O)N[C@@H](CCC(=O)O)C(=O)N[C@@H](Cc1ccccc1)C(=O)N[C@@H](CC(C)C)C(=O)N[C@@H](Cc1ccccc1)C(=O)NCC(=O)N[C@@H](CCCCN)C(=O)N1CCC[C@H]1C(=O)N[C@@H](Cc1ccccc1)C(=O)N[C@H](C(=O)N[C@@H](Cc1ccccc1)C(=O)O)C(C)C)[C@@H](C)CC` [VIR-576] (I: H-LEAIPCSIPPEFLFGKPFVF-OH / II: H-LEAIPCSIPPEFLFGKPFVF-OH; disulfide I:6-II:6), the half-life in data set [3] was 5.8 h; in data set [4], 2.6 h; in data set [5] it was 12.6 h; in data set [6], 3.8 h.

As to H-LEAIPMSIPPEFAFNKDFVF-OH [VIR-243], the values for the IC50 in data set [1] and in data set [2] were 1980 nM and 2160 nM, respectively.

Take H-LEAIPMSIPPEIAFNKPFVF-OH [VIR-184]: the IC50 in data set [1] worked out at 5390 nM; in data set [2], 1990 nM. In data set [2] (from IC50 against two HIV-1 strains (NL4-3, DTV)), the “increase in anti-HIV activity in comparison to VIRIP” value was 4 fold.

Turning to H-LEAIPMSIPPELAFAKPFVF-OH [VIR-182], the IC50 was found to be 2970 nM in data set [1] and 2250 nM in data set [2].

As to H-LEAIPMSIPPEVFFGKPFVF-OH [VIR-170], the results for the IC50 in data set [1] and in data set [2] were 2000 nM and 1520 nM, respectively.
